# Values quoted from earlier work as cited in US12350300B2, “Use of dopamine producing products to increase vaccine efficacy” (Iowa State University Research Foundation, Inc., priority 2021, dated 2025).
# What was measured:
# [1] = system: longitudinal muscle; settings: read-out: EC50, relaxation
# [2] = system: mouse colitis; settings: Herak-Perkovic 2001
# [3] = system: circular muscle; settings: read-out: EC50, contractions
smiles,measurement,setting,value
NCCc1ccc(O)c(O)c1 [dopamine],EC50,[1],29 µM
same,effect against the development of inflammation,[2],protective effect
same,EC50,[3],6.3 µM
